Patent US20250302965A1, “Preparations of Basic pH Hydrotropes & Methods for Making Same” (Aurora Pharmaceutical, Inc., priority 2023, published 2025)

Legend:
[1] = Solubilization by meglumine chelate system (hydrotrope) at basic pH; settings: for Dissolution after treatment to create a chelate system: basic pH with meglumine
[2] = source named in cell (Merck Index, Pubchem, published literature); cited from earlier work
[3] = cited from earlier work
[4] = Meloxicam formulations at different meglumine-to-meloxicam molar ratios; neutralization; assay type: physicochemical; settings: […] w/v meloxicam formula, 2:1 meglumine-to-meloxicam, neutralized; pH crossed neutral

O=C(CNC(=O)c1ccc(C2=NOC(c3cc(Cl)cc(C(F)(F)F)c3)(C(F)(F)F)C2)c2ccccc12)NCC(F)(F)F (stereo not drawn) [Afoxolaner]
Dissolution after treatment to create a chelate system [1]: Contains two amides and two aromatic groups, but the amides are not on a chain between the two aromatic groups. The one nitrogen atom that is between the two aromatic groups is not a secondary amine, amide or amino sulfone and did not dissolve when tested.

CC(C(=O)O)c1ccc2c(c1)[nH]c1ccc(Cl)cc12 (stereo not drawn) [Carprofen]
Reported Solubility in Water (in w/v) [2]: 0.00411% (Pubchem) % w/v

COc1ccc(-c2cc(C(F)F)nn2-c2ccc(S(N)(=O)=O)cc2)cc1F [Deracoxib]
Dissolution after treatment to create a chelate system [1]: Contains two aromatic groups and an aryl amino sulfone but the two nitrogen atoms between the aromatic groups are not secondary amines, amides or amino sulfones and did not dissolve when tested.

CCN1CCN(c2cc3c(cc2F)c(=O)c(C(=O)O)cn3C2CC2)CC1 [Enrofloxacin]
Dissolution after treatment to create a chelate system [1]: Contains only tertiary amines and only one aromatic group and did not dissolve when tested.

CC[C@H](C)[C@H]1O[C@]2(C=C[C@@H]1C)C[C@@H]1C[C@@H](C/C=C(\C)[C@@H](O[C@H]3C[C@H](OC)[C@@H](O[C@H]4C[C@H](OC)[C@H](NC(C)=O)[C@H](C)O4)C(C)O3)[C@@H](C)/C=C/C=C3\CO[C@@H]4[C@H](O)C(C)=C[C@@H](C(=O)O1)[C@]34O)O2 (stereo partly drawn) [Eprinomectin]
Dissolution after treatment to create a chelate system [1]: Contains an amide, but no amines, amino sulfones or aromatic groups and did not dissolve when tested.

COC(=O)Nc1nc2ccc(Sc3ccccc3)cc2[nH]1 [Fenbendazole]
Dissolution after treatment to create a chelate system [1]: Contains two aromatic groups and an amide, but the amide is not on the chain between the two aromatic groups and did not dissolve when tested.

CC1(C)OC(=O)C(OCC2CC2)=C1c1ccc(S(C)(=O)=O)cc1 [Firocoxib]
Dissolution after treatment to create a chelate system [1]: Does not contain any nitrogen and only one aromatic group with an aryl sulfone and did not dissolve when tested.

CS(=O)(=O)c1ccc([C@@H](O)[C@@H](CF)NC(=O)C(Cl)Cl)cc1 [Florfenicol]
Dissolution after treatment to create a chelate system [1]: Contains an amide and an aryl sulfone, but only one aromatic group and did not dissolve when tested.

CCc1nc2c(C)nc(C)cc2n1-c1ccc(CCNC(=O)NS(=O)(=O)c2ccc(C)cc2)cc1 [Grapiprant]
Examples of Solubilities Demonstrated in Experiments (in w/v) ([1]; basic pH, meglumine at least 2:1 molar ratio (meglumine to molecule)): At least 1.5% w/v | Reported Solubility in Water (in w/v) [2]: Insoluble (Pubchem)

O=[N+]([O-])/N=C1\NCCN1Cc1ccc(Cl)nc1 [Imidacloprid]
Dissolution after treatment to create a chelate system [1]: Contains a secondary amine and other nitrogen containing groups but only one aromatic group and did not dissolve when tested.

O=C(NC(=O)c1c(F)cccc1F)Nc1cc(Cl)c(OC(F)(F)C(F)C(F)(F)F)cc1Cl (stereo not drawn) [Lufenuron]
Dissolution after treatment to create a chelate system [1]: Contains two aromatic groups separated by two amide groups between the two aromatic groups and did not dissolve when tested.

CNC[C@H](O)[C@@H](O)[C@H](O)[C@H](O)CO [Meglumine]
acidity (pKa) [3]: 8.01

Cc1cnc(NC(=O)C2=C(O)c3ccccc3S(=O)(=O)N2C)s1 [Meloxicam]
Behaviour on neutralization [4]: fell out of solution

CO/N=C1\C[C@]2(C[C@@H]3C[C@@H](C/C=C(\C)C[C@@H](C)/C=C/C=C4\CO[C@@H]5[C@H](O)C(C)=C[C@@H](C(=O)O3)[C@]45O)O2)O[C@H](/C(C)=C/C(C)C)[C@H]1C [Moxidectin]
Dissolution after treatment to create a chelate system [1]: No amines, amides, amino sulfones, or aromatic groups and did not dissolve when tested.

COc1ccc2[nH]c([S+]([O-])Cc3ncc(C)c(OC)c3C)nc2c1 (stereo not drawn) [Omeprazole]
Dissolution after treatment to create a chelate system [1]: Contains an aromatic benzene ring, a sulfoxide and an aromatic benzimidazole group, but it does not contain a secondary amine, amide or amino sulfone group and did not dissolve when tested.

CN1C(C(=O)Nc2ccccn2)=C(O)c2ccccc2S1(=O)=O [Piroxicam]
Reported Solubility in Water (in w/v) [2]: 0.00497% (Pubchem) % w/v

Cc1cc(-n2c(=O)[nH]c(=O)n(C)c2=O)ccc1Oc1ccc(S(=O)(=O)C(F)(F)F)cc1 [Ponazuril]
Dissolution after treatment to create a chelate system [1]: Contains two aromatic groups and a sulfoxide and an amide, but the amide is not on the chain between the two aromatic rings and did not dissolve when tested.

CCc1ccc(Nc2c(F)c(F)cc(F)c2F)c(CC(=O)O)c1 [Robenacoxib]
Reported Solubility in Water (in w/v) [2]: 0.017% (published literature) % w/v

Nc1ccc(S(=O)(=O)Nc2ncccn2)cc1 [Sulfadiazine]
Reported Solubility in Water (in w/v) [2]: 0.0077% (Pubchem) % w/v

COc1cc(NS(=O)(=O)c2ccc(N)cc2)nc(OC)n1 [Sulfadimethoxine]
Reported Solubility in Water (in w/v) [2]: 0.0343% (Pubchem) % w/v
